Results as given in patent publication US7741281B2, “Hepatitis C virus inhibitors” (Bristol-Myers Squibb Company, priority 2005, dated 2010).

How the values were obtained:
[1] = biological target: T1, HCV NS3/4A protease complex, BMS strain (UniProt P27958, species not given/STRAIN_BMS); test: FRET peptide assay to monitor HCV NS3/4A proteolytic activity (BMS strain); type: biochemical, HCV genotype 1a; conditions: NS3/4A BMS strain; read-out: IC50 Activity Range
T1 construct: for H77 and J4L6S; fused on or other part: Three-lysine solubilizing tail at the end of NS4A, for the H77 and J4L6S constructs; Purification on Ni-NTA and the pET21b vector imply a His tag
T1 sequence (P27958 1027-1657, change not shown, one chain of several): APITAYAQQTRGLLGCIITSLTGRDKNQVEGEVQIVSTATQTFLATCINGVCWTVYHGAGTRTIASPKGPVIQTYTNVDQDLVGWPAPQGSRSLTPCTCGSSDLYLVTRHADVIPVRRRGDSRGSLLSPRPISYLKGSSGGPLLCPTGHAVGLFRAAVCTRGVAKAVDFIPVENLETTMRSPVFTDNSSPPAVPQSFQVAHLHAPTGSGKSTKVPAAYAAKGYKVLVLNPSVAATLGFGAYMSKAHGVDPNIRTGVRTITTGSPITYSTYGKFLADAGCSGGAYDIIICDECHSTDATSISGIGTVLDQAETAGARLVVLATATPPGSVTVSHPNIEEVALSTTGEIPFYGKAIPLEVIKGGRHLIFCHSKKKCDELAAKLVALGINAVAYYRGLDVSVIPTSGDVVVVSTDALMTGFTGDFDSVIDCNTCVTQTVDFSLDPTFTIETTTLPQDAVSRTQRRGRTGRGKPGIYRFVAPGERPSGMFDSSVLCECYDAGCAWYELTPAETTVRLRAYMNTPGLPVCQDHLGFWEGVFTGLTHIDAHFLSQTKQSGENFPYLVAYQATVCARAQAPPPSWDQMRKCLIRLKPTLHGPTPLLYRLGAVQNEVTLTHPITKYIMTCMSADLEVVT
Text: HCV NS3 protease complexes, derived from the BMS strain, H77 strain or J4L6S strain, were generated, as described below. These purified recombinant proteins were generated for use in a homogeneous assay (see below) to provide an indication of how effective compounds of the present disclosure would be in inhibiting HCV NS3 proteolytic activity.
Serum from an HCV-infected patient was obtained from Dr. T. Wright, San Francisco Hospital. An engineered full-length cDNA (compliment deoxyribonucleic acid) template of the HCV genome (BMS strain) was constructed from DNA fragments obtained by reverse transcription-PCR (RT-PCR) of serum RNA (ribonucleic acid) and using primers selected on the basis of homology between other genotype 1a strains. From the determination of the entire genome sequence, a genotype 1a was assigned to the HCV isolate according to the classification of Simmonds et al. (See P Simmonds, K A Rose, S Graham, S W Chan, F McOmish, B C Dow, E A Follett, P L Yap and H Marsden, J. Clin. Microbiol., 31(6), 1493-1503 (1993)). […] The infectious clones, H77 (1a genotype) and J4L6S (1b genotype) were obtained from R. Purcell (NIH) and the sequences are published in Genbank (AAB67036, see Yanagi, M., Purcell, R. H., Emerson, S. U. and Bukh, J. Proc. Natl. Acad. Sci. U.S.A. 94(16), 8738-8743 (1997); AF054247, see Yanagi, M., St Claire, M., Shapiro, M., Emerson, S. U., Purcell, R. H. and Bukh, J, Virology 244 (1), 161-172. (1998)).
The H77 and J4L6S strains were used for production of recombinant NS3/4A protease complexes. DNA encoding the recombinant HCV NS3/4A protease complex (amino acids 1027 to 1711) for these strains were manipulated as described by P. Gallinari et al. (see Gallinari P, Paolini C, Brennan D, Nardi C, Steinkuhler C, De Francesco R. Biochemistry. 38(17):5620-32, (1999)). Briefly, a three-lysine solubilizing tail was added at the 3′-end of the NS4A coding region. The cysteine in the P1 position of the NS4A-NS4B cleavage site (amino acid 1711) was changed to a glycine to avoid the proteolytic cleavage of the lysine tag. Furthermore, a cysteine to serine mutation was introduced by PCR at amino acid position 1454 to prevent the autolytic cleavage in the NS3 helicase domain. The variant DNA fragment was cloned in the pET21b bacterial expression vector (Novagen) and the NS3/4A complex was expressed in Escherichia. coli strain BL21 (DE3) (Invitrogen) following the protocol described by P. Gallinari et al. (see Gallinari P, Brennan D, Nardi C, Brunetti M, Tomei L, Steinkuhler C, De Francesco R., J Virol. 72(8):6758-69 (1998)) with modifications. Briefly, the NS3/4A protease complex expression was induced with 0.5 millimolar (mM) Isopropyl β-D-1-thiogalactopyranoside (IPTG) for 22 hours (h) at 20° C. A typical fermentation (1 Liter (L)) yielded approximately 10 grams (g) of wet cell paste. The cells were resuspended in lysis buffer (10 mL/g) consisting of 25 mM N-(2-Hydroxyethyl)Piperazine-N′-(2-Ethane Sulfonic acid) (HEPES), pH 7.5, 20% glycerol, 500 mM Sodium Chloride (NaCl), 0.5% Triton X-100, 1 microgram/milliliter (“μg/mL”) lysozyme, 5 mM Magnesium Chloride (MgCl2), 1 μg/ml DnaseI, 5 mM β-Mercaptoethanol (βME), Protease inhibitor-Ethylenediamine Tetraacetic acid (EDTA) free (Roche), homogenized and incubated for 20 minutes (min) at 4° C. The homogenate was sonicated and clarified by ultra-centrifugation at 235000 g for 1 h at 4° C. Imidazole was added to the supernatant to a final concentration of 15 mM and the pH adjusted to 8.0. The crude protein extract was loaded on a Nickel-Nitrilotriacetic acid (Ni-NTA) column pre-equilibrated with buffer B (25 mM HEPES, pH 8.0, 20% glycerol, 500 mM NaCl, 0.5% Triton X-100, 15 mM imidazole, 5 mM βME). The sample was loaded at a flow rate of 1 mL/min. The column was washed with 15 column volumes of buffer C (same as buffer B except with 0.2% Triton X-100). The protein was eluted with 5 column volumes of buffer D (same as buffer C except with 200 mM Imidazole). […]

[2] = system: HCV replicon in HUH-7 cells; test: HCV replicon FRET assay; type: cell-based, HCV strain 1b; conditions: Hepatitis C virus, Huh-7; HCV replicon; read-out: EC50 Activity Range
Text: An HCV replicon whole cell system was established as described by Lohmann V, Korner F, Koch J, Herian U, Theilmann L, Bartenschlager R., Science 285(5424):110-3 (1999). This system enabled us to evaluate the effects of our HCV Protease compounds on HCV RNA replication. Briefly, using the HCV strain 1b sequence described in the Lohmann paper (Assession number: AJ238799), an HCV cDNA was synthesized by Operon Technologies, Inc. (Alameda, Calif.), and the full-length replicon was then assembled in plasmid pGem9zf(+) (Promega, Madison, Wis.) using standard molecular biology techniques. The replicon consists of (i) the HCV 5′ UTR fused to the first 12 amino acids of the capsid protein, (ii) the neomycin phosphotransferase gene (neo), (iii) the IRES from encephalomyocarditis virus (EMCV), and (iv) HCV NS3 to NS5B genes and the HCV 3′ UTR. Plasmid DNAs were linearized with ScaI and RNA transcripts were synthesized in vitro using the T7 MegaScript transcription kit (Ambion, Austin, Tex.) according to manufacturer's directions. In vitro transcripts of the cDNA were transfected into the human hepatoma cell line, HUH-7. […] Resulting cell lines were characterized for positive and negative strand RNA production and protein production over time.
The HCV replicon FRET assay was developed to monitor the inhibitory effects of compounds described in the disclosure on HCV viral replication. HUH-7 cells, constitutively expressing the HCV replicon, were grown in Dulbecco's Modified Eagle Media (DMEM) (Gibco-BRL) containing 10% Fetal calf serum (FCS) (Sigma) and 1 mg/ml G418 (Gibco-BRL). Cells were seeded the night before (1.5×10^4 cells/well) in 96-well tissue-culture sterile plates. Compound and no compound controls were prepared in DMEM containing 4% FCS, 1:100 Penicillin/Streptomysin (Gibco-BRL), 1:100 L-glutamine and 5% DMSO in the dilution plate (0.5% DMSO final concentration in the assay). Compound/DMSO mixes were added to the cells and incubated for 4 days at 37° C. After 4 days, cells were first assessed for cytotoxicity using alamar Blue (Trek Diagnotstic Systems) for a CC50 reading. The toxicity of compound (CC50) was determined by adding 1/10th volume of alamar Blue to the media incubating the cells. After 4 hours, the fluorescence signal from each well was read, with an excitation wavelength at 530 nm and an emission wavelength of 580 nm, using the Cytofluor Series 4000 (Perspective Biosystems). Plates were then rinsed thoroughly with Phosphate-Buffered Saline (PBS) (3 times 150 μl). The cells were lysed with 25 μl of a lysis assay reagent containing an HCV protease substrate (5× cell Luciferase cell culture lysis reagent (Promega #El 53A) diluted to 1× with distilled water, NaCl added to 150 mM final, the FRET peptide substrate (as described for the enzyme assay above) diluted to 10 μM final from a 2 mM stock in 100% DMSO. […]. The plate was then placed into the Cytofluor 4000 instrument which had been set to 340 nm excitation/490 nm emission, automatic mode for 21 cycles and the plate read in a kinetic mode. EC50 determinations were carried out as described for the IC50 determinations.

| SMILES | IC50 [1] [nM] | EC50 [2] [nM] | melting point [°C] |
| --- | --- | --- | --- |
| CC(C)(C)OC(=O)N[C@H]1CCCCC/C=C\[C@@H]2C[C@@]2(C(=O)NS(=O)(=O)C2CC2)NC(=O)[C@@H]2C[C@@H](Oc3ccccn3)CN2C1=O [Compound 1] | < 100 | 100 to 1000 | – |
| CC(C)(C)OC(=O)N[C@H]1CCCCC/C=C\[C@@H]2C[C@@]2(C(=O)NS(=O)(=O)C2CC2)NC(=O)[C@@H]2C[C@@H](Oc3ccc([N+](=O)[O-])cc3)CN2C1=O [Compound 2] | < 100 | > 1000 | – |
| CC(C)(C)OC(=O)N[C@H]1CCCOC/C=C\[C@@H]2C[C@@]2(C(=O)NS(=O)(=O)C2CC2)NC(=O)[C@@H]2C[C@@H](OCc3ccccc3)CN2C1=O [Compound 5, (1S,4R,6S,14S,18R,7-cis)-18-benzyloxy-14-tert-butoxycarbonylamino-4-cyclopropanesulfonylaminocarbonyl-2,15-dioxo-3,16-diaza-10-oxatricyclo[14.3.0.0^4,6]nonadec-7-ene] | < 100 | > 1000 | 147 to 149 |
| CC(C)(C)OC(=O)N[C@H]1CCCOC/C=C\[C@@H]2C[C@@]2(C(=O)NS(=O)(=O)C2CC2)NC(=O)[C@@H]2C[C@@H](OC(C)(C)C)CN2C1=O [Compound 6, (1S,4R,6S,14S,18R,7-cis)-18-tert-butoxy-14-tert-butoxycarbonylamino-4-cyclopropanesulfonylaminocarbonyl-2,15-dioxo-3,16-diaza-10-oxatricyclo[14.3.0.0^4,6]nonadec-7-ene] | 100 to 1000 | > 1000 | – |
